Assay results reported in patent publication US10799501B2, “Combination of an inhibitor of PARP with an inhibitor of GSK-3 or DOT1L” (King's College London, priority 2015, dated 2020).

How the values were obtained:
Kasumi (AML1-ETO) = test: Humanized xenograft: NSG mice transplanted with Kasumi cells, Olaparib treatment; type: in vivo, mouse
Procedure: We established humanized models of AML1-ETO and PML-RARα leukemia in sub-lethally irradiated NOD/SCID/IL2Rg−/−(NSG, 1 dose 200 RADs) by transplanting 2×10^6 Kasumi (intra-femoral, IF) and 1×10^5 NB4-LR2 or 1×10^5 THP1 (intravenous, IV) cells. The day after the transplantation, mice were split into two groups and given intra-peritoneal injections of vehicle (10% HBC) or Olaparib (25 mg/kg in 10% HBC) daily for 2-4 weeks. The maximum tolerable dose was calculated by in vivo dose-response experiments. Mice were monitored daily until they developed symptoms of leukemia, when they were culled and bone marrow, spleen and liver harvested and analyzed by FACS. The engraftment of human donor cells was defined as human CD45/CD33 double positive by FACS.

[1] = tested on: MLL-AF9 leukemic cells (Hoxa9−/− background); test: C57Bl/6 mice transplanted with Hoxa9−/− MLL-AF9 leukemic cells, Olaparib treatment; type: in vivo, mouse; settings: Olaparib 50 mg/kg daily
Procedure: For Hoxa9 KO studies, we intravenously injected […] MLL-AF9 leukemic cells (wild type or Hoxa9−/− background) together with 2×10^5 bone marrow rescue cells into lethally irradiated C57Bl/6 mice (2 doses of irradiation 550 RADS each) for disease development. For drug studies, the control cohort received vehicle (10% 2-Hydroxpropyl-beta-cyclodextrin, HBC, Sigma-Aldrich) and the PARPi treatment group received daily Olaparib 50 mg/kg in 10% HBC for two-four weeks.

[2] = tested on: MLL-AF9 Hoxa9−/− transformed cells; test: In vitro PARPi treatment of MLL-AF9 transformed cells from Hoxa9−/− background; type: cell-based, mouse
Procedure: Transduction using concentrated viral supernatant expressing the oncogene of interest was carried out by centrifugation (spinoculation) at 800 g at 32° C. for 2 hours in the presence of 5 μg ml^-1 polybrene (Sigma-Aldrich). Cells were subsequently plated in 1% methylcellulose medium ([…]; Stem Cell Technologies) containing 20 ngml^-1 SCF, 10 ngml^-1 IL-3, 10 ngml^-1 IL-6 and 10 ngml^-1 granulocyte macrophage colony-stimulating factor (GM-CSF) and appropriate selection antibiotic. Colonies were counted after 7 days of culture and replated every 6-7 days at 5×103-1.5×10^4 cell density. Re-plating was performed weekly to generate primary cell lines for further analysis. After the third or fourth round of plating, cells were cultured in R20/20 medium (RPMI 1640, 20% FCS, 20% WEHI-conditioned medium, 2 mM L-glutamine, 100 U/ml penicillin, and 100 μg/ml streptomycin) supplemented with 20 ngml^-1 stem cell factor (SCF), 10 ngml^-1 interleukin (IL)-3, and 10 ngml^-1 IL-6 to establish cell lines. All recombinant murine cytokines were from PeprotechEC. […] Colonies were scored 6-7 days after plating. […] Cells were counted in at least 5 fields for each slide, for a total of over 100 cells. The percentage of senescent cells was calculated by the percentage of the number of blue cell in the field.

MLL pre-LSC = test: Colony formation of MLL pre-LSC with PARPi, LiCl or combination; type: cell-based, mouse; settings: seven days; 8 mM LiCl, 1 μM Olaparib
Procedure: Colonies were scored 6-7 days after plating. For other in vitro studies, mouse leukemic cells and primary AML cell lines were subjected to continuously Olaparib (1 μM) or LiCl (8 mM) treatment in liquid culture for whole duration as indicated in the figures or figure legends. For human leukemic cell lines, experiments were performed as described above with 5 μM Olaparib. 1×10^5 cells were cytospun for 5 min at 300 g onto glass slides. Slides were then stained with May-Grunwald solution (Sigma-Aldrich) for 3 min at room temperature. After washing in water, they were incubated for 20 min in Giemsa solution (Sigma-Aldrich) (1:20 in water). Slides were washed again in water before being mounted with Mowiol. Cells were counted in at least 5 fields for each slide, for a total of over 100 cells per condition. NBT reduction assay were performed to determine myeloid differentiation. 0.1% of NBT (final concentration) was added to the liquid culture or semi-solid methocult and incubated at 37° C. CO2 incubator for 3 hrs and 12 hrs, respectively. Cells were then washed in PBS and the differentiated cells were indicated by the deposition of dark blue insoluble formazan (NBT positive cells) and the percentage of differentiated cells were counted under microscopy. At least 200 cells were counted in most of the cases.

[3] = NSG mice succumbed with Kasumi driven disease, Olaparib 25 mg/kg i.p. daily
[4] = C57Bl6 mice succumbed with MLL-AF9-Hoxa9 KO driven leukemia

## O=C(c1cc(Cc2n[nH]c(=O)c3ccccc23)ccc1F)N1CCN(C(=O)C2CC2)CC1 [Olaparib, 4-[(3-[(4-cyclopropylcarbonyl)piperazin-4-yl]carbonyl)-4-fluorophenyl]methyl(2H)-phthalazin-1-one]
Kasumi (AML1-ETO); [3]
  BM Engraftment (%): 41.35 ± 27.73%
  Disease Latency (days; median): 102 days
  Hematopoietic Liver Engraftment (%): 41.68 ± 26.19%
  Hematopoietic Spleen Engraftment (%): 48.68 ± 33.71%
  Liver: 1.999 ± 0.3720 g
  Spleen: 0.1630 ± 0.1198 g
Kasumi (AML1-ETO); monotherapy, disease onset driven by AML1-ETO, control 55 days
  median survival: 102 days
[1]; [4]
  BM Engraftment (%): 82.06 ± 18.95%
  Disease Latency (days; median): 67 days
  Hematopoietic Liver Engraftment (%): 62.18 ± 38.26%
  Hematopoietic Spleen Engraftment (%): 65.4 ± 33.45%
  Liver: 1.696 ± 0.1262 g
  Spleen: 0.4337 ± 0.1559 g
[1]; Hoxa9 deficient MLL-AF9 leukemic cells
  disease latency: significantly delayed the disease latency
[2]; 48 hrs PARPi treatment
  senescence (β-galactosidase staining): induction of senescence
[2]; seven days in methylcellulose with PARPi
  colony forming ability and differentiation: significant suppression of colony forming ability and differentiation
MLL pre-LSC
  colony forming ability / growth inhibition: non-effective
